Measurements as given in article PMC7605555 (bioRxiv, 2020).
Where “and” joins values, the source holds several entries; their conditions need not be identical. Identical values can stand only once.

Experiments:
Vero E6 cells = test: Cytotoxicity, WST-1 cell proliferation assay; type: cell-based, African green monkey; settings: for concentration at which cytotoxic: Vero E6 cells
SARS-CoV-2 [1] = type: cell-based
[2] = target: SARS-CoV-2 main protease Mpro (Severe acute respiratory syndrome coronavirus 2, UniProt P0DTD1); test: cell-based; settings: IC50 in inhibiting Mpro
SARS-CoV-2 [3] = test: Viral particle inactivation / time-of-addition, plaque assay on Vero E6 cells; type: cell-based
SARS-CoV-2 viral RNA = test: Viral RNA quantification by qRT-PCR in Vero cells and supernatant; type: cell-based; settings: 5 μM
SARS-CoV-2 [4] = type: cell-based; settings: virus treated with 5 μM for 1 hour, MOI = 100, Vero E6
SARS-CoV-2 [5] = test: Plaque assay on A549^ACE2 cells with ethacridine-treated virus; type: cell-based; settings: 5 uM, 1 hr pre-incubation
SARS-CoV-2 [6] = type: cell-based; settings: 5 μM, 48 hours, anti-N and anti-S staining
[7] = 20 mg/kg, i.p. injection; cited from earlier work
[8] = rat, mice and rabbits; cited from earlier work

ivermectin
concentration at which cytotoxic (Vero E6 cells): 5 to 13 µM

verteporfin
concentration at which cytotoxic (Vero E6 cells): 5 to 13 µM

CCC(CC)COC(=O)[C@H](C)N[P@](=O)(OC[C@H]1O[C@@](C#N)(c2ccc3c(N)ncnn23)[C@H](O)[C@@H]1O)Oc1ccccc1 [Remdesivir, remdesivir]
reduction in viral titer (SARS-CoV-2 [1]): ~ 4 log

O=c1c2ccccc2[se]n1-c1ccccc1 [ebselen]
reduction in viral titer (SARS-CoV-2 [1]): ~ 2 log

COc1ccc2c(O[C@@H]3C[C@H]4C(=O)N[C@]5(C(=O)NS(=O)(=O)C6CC6)C[C@H]5/C=C\CCCCN(C)C(=O)[C@@H]4C3)cc(-c3nc(C(C)C)cs3)nc2c1C [Simeprevir, simeprevir]
reduction in viral titer (SARS-CoV-2 [1]): ~ 4 log

C[C@@H](NCCCc1cccc(C(F)(F)F)c1)c1cccc2ccccc12 [Cinacalcet, cinacalcet]
reduction in viral titer (SARS-CoV-2 [1]): ~ 1 log

CCOc1ccc2nc3cc(N)ccc3c(N)c2c1 [Ethacridine, ethacridine]
IC50 [2]: ~3.54 µM and ~3.5 µM
reduction in viral titer (SARS-CoV-2 [1]): 5 – 6 log
cell toxicity (Vero E6 cells; Vero E6 (Fig. 3e)): very little cell toxicity
reduction in viral titer, DMSO + Eth. (SARS-CoV-2 [3]; 5 μM, drug added after viral entry): 3 – 4 logs
reduction in viral titer, Eth. + Eth. (SARS-CoV-2 [3]; 5 μM, drug present continuously prior to plaque assay, versus DMSO + DMSO): 3 – 4 logs
reduction in viral titer, Eth. + Eth. (SARS-CoV-2 [3]; 5 μM, plaque assay): 2400 fold
reduction in infectivity, Eth. [1 hr] (SARS-CoV-2 [3]; virus pre-incubated with drug 1 hr, plaque assay without drug): 3 – 4 logs
change of viral RNA (vRNA) levels, DMSO + Eth. (SARS-CoV-2 viral RNA; drug added after binding and entry, supernatant and cells): no change
reduction in vRNA copies, Eth. + Eth. (SARS-CoV-2 viral RNA; drug present continuously, supernatant and within the cells): 4 – 5 fold
detectable anti-N and anti-S fluorescence on cells (SARS-CoV-2 [4]): dramatic reduction
infectivity of drug-treated virus on A549^ACE2 cells (SARS-CoV-2 [5]): dramatic decrease in infectivity
proportion of infected primary nasal cells (SARS-CoV-2 [6]): dramatically decreased
toxicity in mice [7]: no toxicity
toxicity in animal models [8]: non-toxic

CC(=O)[C@@]1(O)CC[C@H]2[C@@H]3CCC4=CC(=O)CC[C@]4(C)[C@H]3CC[C@@]21C [Hydroxyprogesterone, hydroxyprogesterone]
reduction in viral titer (SARS-CoV-2 [1]): ~ 1 log
